pIC50: −log10 of the molar value. Where two headings read alike, the source gives them in different places. Values belong to the molecule of their own block, whether it stands above or below them.
Tests used:
purified p-AMPK = target: T1, purified p-AMPK (Rattus norvegicus, UniProt P54645+P80385); assay: Kinase assay with purified p-AMPK and GST-ACC peptide; type: biochemical; settings: compared to DMSO control
T1 construct: Full-length AMPK intended for use in phosphatase and kinase assays was purified, mixed with GST-CaMKKβ; made in house; host or cells: Rosetta cells (E. coli); phosphorylated in vitro with GST-CaMKKβ, which was then removed on glutathione resin
Protocol: Kinase assays. Assay conditions were adapted from published methods (17). The final assay buffer was comprised of 40 mM Hepes (pH 7.4) 5 mM MgCl2, 200 μM ATP, 75 mM NaCl, 0.01% Triton X-100, 1 mM DTT, and 0.45% DMSO (vehicle). Because some analogs had poor solubility at high concentrations, all analogs and controls were diluted in assay buffer and centrifuged (1 min, 5000 rpm, 4° C.) to remove insoluble matter. GST-ACC peptide and p-AMPK were thawed, diluted in assay buffer, and then added to the supernatant at final concentrations of 900 and 0.1 ng/μL, respectively. Kinase assays were assembled on ice; reactions were allowed to proceed for 30 minutes at room temperature. Reactions were stopped by the addition of loading buffer and 48 mM DTT followed promptly by freezing at −20° C.
(§1) Western analyses. Protein samples were boiled for 15 minutes in loading buffer and DTT prior to SDS-PAGE. Blots for protein-based assays were sequentially incubated with the following: 5% BSA in 1× TBS (1 hr, 22° C.), 1:1000 rabbit anti-human p-AMPK-α antibody or p-ACC antibody (2 hr, 22° C.), and 1:10,000 donkey anti-rabbit secondary antibody (1 hr, 22° C.). Blots for phosphatase assays were probed a second time using 1:100 mouse anti-human total AMPK antibody (overnight, 4° C.; from UNC Antibody Core Facility) followed by 1:10,000 donkey anti-mouse secondary antibody (1 hr, 22° C.). Blots for clarified cell lysates were sequentially probed for p-AMPK (1:500 dilution, overnight at 4° C. or 4 hours at 22° C.), total ACC (1:1000 dilution, overnight at 4° C. or 4 hours at 22° C.), and tubulin (1:10,000 dilution, 1 hr, 22° C.); a parallel set of blots were probed for p-ACC (1:500 dilution, overnight at 4° C. or 4 hours at 22° C.), total AMPK (1:1000 dilution, overnight at 4° C. or 4 hours at 22° C.), and tubulin (1:10,000 dilution, 1 hr, 22° C.). Because phosphorylated and total protein were imaged on separate membranes, the signals were normalized to the internal tubulin signal prior to calculating the ratio of phosphorylated to total protein. Scanning and imaging were completed according to published methods.

[1] = system: p-ACC levels in HEK cells; assay: Cell-intact assay, p-ACC levels in HEK cells; type: cell-based, human
Protocol: Cell-intact assays. HEK cells were grown in DMEM with 10% FBS and 1% penicillin/streptomycin at 37° C. A subset of plates was serum-starved for 5 hours on the day of the experiment. After 5 hours of serum-starvation, cells were treated with either controls (0.2% DMSO, A-769662, or Compound C) or small molecules in the absence of serum for an additional hour prior to lysis. Another subset of plates was serum-starved for 6 hours and then treated with either controls or small molecules for 1 hour in the presence of 10% FBS. A time course of both AMPK and ACC phosphorylation in HEK cells during serum starvation has already been published (Pirkmajer S, Chibalin A V. Serum starvation: caveat emptor. American journal of physiology Cell physiology. 2011 August; 301(2):C272-9. PubMed PMID: 2161361).
After incubating in the presence of drugs for one hour, cells were washed three times with ice-cold PBS and lysed according to published methods (Kazgan N, Williams T, Forsberg L J, Brenman J E. Identification of a nuclear export signal in the catalytic subunit of AMP-activated protein kinase. Molecular biology of the cell. 2010 Oct. 1; 21(19):3433-42. PubMed PMID: 20685962. Pubmed Central PMCID: 2947478). Lysates were centrifuged at 16,000 g (10 minutes, 4° C.). Clarified supernatant (30 μL) was then transferred to 10 μL 4X loading buffer and 2 μL 1 M DTT. Samples were immediately frozen at −20° C. The concentration of protein in diluted clarified supernatant was calculated using a DC protein assay kit (BioRad) prior to western analyses.
as §1

[2] = target: T2, full-length AMPK (rat His-α1, β1, γ1) (Rattus norvegicus, UniProt P54645+P80385); assay: MANT-ADP fluorescence displacement (binding) assay, full-length AMPK; settings: for inhibition of the protein-bound signal of MANT-ADP in the triplicate similarity screen: final concentration 45 μM
T2 construct: Tricistronic vectors encoding full-length AMPK (rat His-α1, β1, γ1); made in house; host or cells: Rosetta cells (E. coli), tricistronic vector, gift of Dr. Uwe Schlattner
Protocol: (§2) Except where otherwise noted, assays were performed with the following conditions: 0.5 μM full-length AMPK (130 kDa) or 0.5 μM regulatory fragment (66.7 kDa), 0.1 μM MANT-ADP, 10 mM Tris-HCl (pH 8), 0.45% DMSO (vehicle and negative control), and 5 μM ADP (positive control). Automated assays were assembled in two steps. First, a NanoQuot (BioTek) was used to dispense 11 μL of master mix (protein, MANT-ADP, and Tris-HCl) per well in black, low volume 384-well plates (Corning-3676). Next, a Biomek NX workstation (Beckman-Coulter, Brea, Calif.) equipped with pintools (VP Scientific, San Diego Calif.) was used to transfer 50 nL of controls (columns 1, 2, 23, and 24) and small molecules (4.5 μM final). Controls and library molecules were transferred from Axygen 384-well rigid PCR plates (Cat no. 321-67-051) at 221× concentration for single-concentration screening. Plates were shaken for 10 minutes prior to reading.
(§3) Fluorescence emission spectra of MANT-ADP were collected using a PerkinElmer EnSpire plate reader with an excitation wavelength of 360 nm. Background fluorescence from protein was subtracted from the raw data prior to plotting MANT-ADP's fluorescence in the presence of protein. Fluorescence detection for assay development and screening was performed on either a BMG Pherastar Plus (360/10 excitation and 460/10 emission filters) or a PerkinElmer EnVision (355/40 excitation and 460/25 emission filters), depending on equipment availability. Relative fluorescence units (RFUs) were recorded at room temperature.
(§4) ScreenAble (ScreenAble Solutions, Chapel Hill, N.C.) high-throughput screening software was utilized for merging screening data and chemical structure, for statistical design of experiments, and hit selection. GraphPad Prism was used for non-linear regression analysis of dose response data.
(§5) Binding assays. Except where otherwise noted, assay assembly and data analysis were completed according to published methods. Binding assays were manually assembled, with the exception of the similarity screen. Automated assembly of the similarity screen was completed according to published methods. Analogs were cherry-picked from a 10 mM Asinex small molecule library and a 0.5 mM kinase focused library, which has been described previously (4). Molecules were screened at a final concentration of 45 and 2.3 μM, respectively.

[3] = target: T3, AMPK regulatory fragment (rat His-α1, 396-548; human β2, 187-272; rat γ1) (Rattus norvegicus, UniProt P80385); assay: MANT-ADP fluorescence displacement (binding) assay, AMPK regulatory fragment; settings: inhibition of MANT-ADP fluorescence
T3 construct: rat His-α1, 396-548; human β2, 187-272; rat γ1; made in house; host or cells: Rosetta cells (E. coli), tricistronic vector, gift of Dr. Steve Gamblin
Protocol: as §2, §3, §4, §5

[4] = system: phospho-AMPKα in HEK cells; assay: Western blot of treated HEK cells for phospho-AMPKα (Example 3); type: cell-based, human
Protocol: Approximately 50 compounds will be tested from those identified above using the methods and assays described herein on HEK cells in culture in 6 well plate format for their ability to enter cells and modulate AMPK, initially at 1 μM, 2 μM, 10 μM and 20 μM compound in 0.1% DMSO. […] Molecular biology of the cell 23, 381-389, doi:10.1091/mbc.E11-08-0699 (2012)). Examples of this approach with compounds identified from our preliminary screening that have AMPK modulatory activity are shown in FIG. 7. […] See also FIG. 8. […] By testing under multiple conditions, the likelihood of identifying agonists and antagonists of AMPK activity in vivo, and particularly those that are not dependent on a particular means of altering AMPK activity may increase.
The phosphorylation status of AMPKα with a phospho-specific antibody (against the activation/T-loop threonine 172) (Cell Signaling) will be quantified. […] Molecular biology of the cell 21, 3433-3442, doi:10.1091/mbc.E10-04-0347 (2010)) (FIG. 7). […] In addition, phospho-ACC (Cell Signaling) will be measured by western blot. Cytoplasmic acetyl coenzyme A carboxylase (ACC) is the best known AMPK direct downstream target, and is a rate-limiting enzyme in the energy consuming process of fatty acid synthesis (Davies, S. P. et al. Purification of the AMP-activated protein kinase on ATP-gamma-sepharose and analysis of its subunit structure. European journal of biochemistry/FEBS 223, 351-357 (1994); Carling, D., Zammit, V. A. & Hardie, D. G. A common bicyclic protein kinase cascade inactivates the regulatory enzymes of fatty acid and cholesterol biosynthesis. FEBS Lett 223, 217-222 (1987)). Phospho-ACC will be standardized to both tubulin and total (non-phospho) ACC to ensure we are not measuring changes in total ACC levels. Compounds that modulate phospho-AMPKα and phospho-ACC status in the same direction (both increase or both decrease) will be prioritized over compounds that produce different affects on AMPKα versus ACC phosphorylation for in vitro kinase or phosphatase protection assays.

[5] = target: T4, p-AMPK in the presence of PP2C (Rattus norvegicus, UniProt P54645+P80385); assay: Phosphatase assay: protection of p-AMPK from dephosphorylation by PP2C; type: biochemical; settings: p-AMPK/total AMPK ratio normalized to no-PP2C control
T4 construct: Full-length AMPK intended for use in phosphatase and kinase assays was purified, mixed with GST-CaMKKβ; made in house; host or cells: Rosetta cells (E. coli); phosphorylated in vitro with GST-CaMKKβ, which was then removed
Protocol: Phosphatase assays. Assay conditions were adapted from published methods (18). In short, the final assay buffer was compromised of 50 mM Tris (pH 7.5), […], 0.01% Triton X-100, 1 mM DTT, and 0.45% DMSO (vehicle). Because some analogs had poor solubility at high concentrations, all analogs and controls were diluted in assay buffer and centrifuged (1 min, 5000 rpm, 4° C.) to remove insoluble matter. PP2C and p-AMPK were added to the supernatant at final concentrations of 2 and 3 ng/μL, respectively. Phosphatase reactions were allowed to proceed for 30 minutes at 37° C. Reactions were stopped by the addition of loading buffer and 48 mM DTT followed promptly by freezing at −20° C.
Western analyses. Protein samples were boiled for 15 minutes in loading buffer and DTT prior to SDS-PAGE. Blots for protein-based assays were sequentially incubated with the following: 5% BSA in 1× TBS (1 hr, 22° C.), 1:1000 rabbit anti-human p-AMPK-α antibody or p-ACC antibody (2 hr, 22° C.), and 1:10,000 donkey anti-rabbit secondary antibody (1 hr, 22° C.). Blots for phosphatase assays were probed a second time using 1:100 mouse anti-human total AMPK antibody (overnight, 4° C.; from UNC Antibody Core Facility) followed by 1:10,000 donkey anti-mouse secondary antibody (1 hr, 22° C.). […]

T2 sequence (P54645 with tags, fused parts or gaps limits assumed): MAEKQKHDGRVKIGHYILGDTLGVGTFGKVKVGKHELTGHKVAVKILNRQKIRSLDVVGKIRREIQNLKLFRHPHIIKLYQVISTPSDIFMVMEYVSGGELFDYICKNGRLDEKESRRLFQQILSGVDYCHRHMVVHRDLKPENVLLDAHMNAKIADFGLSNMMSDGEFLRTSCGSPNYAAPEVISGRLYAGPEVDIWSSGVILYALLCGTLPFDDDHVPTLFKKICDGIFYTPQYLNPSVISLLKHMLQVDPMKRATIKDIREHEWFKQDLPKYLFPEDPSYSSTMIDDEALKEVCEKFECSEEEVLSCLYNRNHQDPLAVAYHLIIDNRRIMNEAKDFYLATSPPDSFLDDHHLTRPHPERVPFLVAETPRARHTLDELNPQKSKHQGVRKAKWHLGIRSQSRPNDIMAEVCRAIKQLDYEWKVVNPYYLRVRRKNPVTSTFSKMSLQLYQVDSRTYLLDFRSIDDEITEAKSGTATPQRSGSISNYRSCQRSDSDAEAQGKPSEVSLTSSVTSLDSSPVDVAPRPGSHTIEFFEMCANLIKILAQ
T2 sequence (P80386 whole entry partner): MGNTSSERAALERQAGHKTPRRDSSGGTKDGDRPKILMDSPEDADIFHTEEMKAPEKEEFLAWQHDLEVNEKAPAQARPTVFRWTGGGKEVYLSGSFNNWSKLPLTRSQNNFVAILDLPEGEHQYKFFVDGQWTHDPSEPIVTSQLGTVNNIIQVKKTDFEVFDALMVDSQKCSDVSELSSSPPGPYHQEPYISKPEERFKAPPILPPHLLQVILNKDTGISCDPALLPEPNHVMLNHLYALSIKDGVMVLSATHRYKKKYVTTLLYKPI
T2 sequence (P80385 whole entry): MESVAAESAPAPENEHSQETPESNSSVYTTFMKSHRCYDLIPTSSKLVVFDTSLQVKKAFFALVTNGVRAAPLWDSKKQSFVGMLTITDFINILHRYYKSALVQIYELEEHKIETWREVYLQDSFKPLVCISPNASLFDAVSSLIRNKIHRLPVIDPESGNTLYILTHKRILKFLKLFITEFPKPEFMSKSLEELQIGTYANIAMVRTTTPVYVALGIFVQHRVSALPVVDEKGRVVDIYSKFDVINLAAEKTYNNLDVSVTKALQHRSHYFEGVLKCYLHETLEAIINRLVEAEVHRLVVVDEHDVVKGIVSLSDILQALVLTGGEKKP
T3 sequence (P54645 407-559 partner limits assumed): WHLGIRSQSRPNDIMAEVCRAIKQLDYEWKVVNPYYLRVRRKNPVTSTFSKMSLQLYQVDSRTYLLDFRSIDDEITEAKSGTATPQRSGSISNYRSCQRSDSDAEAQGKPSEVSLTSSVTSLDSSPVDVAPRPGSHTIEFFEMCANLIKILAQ
T3 sequence (O43741 187-272 partner limits assumed): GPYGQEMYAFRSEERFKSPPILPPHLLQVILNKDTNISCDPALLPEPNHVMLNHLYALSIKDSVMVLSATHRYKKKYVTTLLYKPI
T3 sequence (P80385 whole entry, the tested form may be a part): as the sequence (P80385 whole entry) above
T1 sequence (P54645 with tags, fused parts or gaps limits assumed): as the sequence (P54645 with tags, fused parts or gaps limits assumed) above
T1 sequence (P80386 whole entry partner): as the sequence (P80386 whole entry partner) above
T1 sequence (P80385 whole entry): as the sequence (P80385 whole entry) above
T4 sequence (P54645 with tags, fused parts or gaps limits assumed): as the sequence (P54645 with tags, fused parts or gaps limits assumed) above
T4 sequence (P80386 whole entry partner): as the sequence (P80386 whole entry partner) above
T4 sequence (P80385 whole entry): as the sequence (P80385 whole entry) above

activity of purified p-AMPK (phosphorylation of GST-ACC peptide), dose response (purified p-AMPK): inhibits substrate phosphorylation
SMILES: c1cc(-c2cnn3cc(-c4ccc(OCCN5CCCCC5)cc4)cnc23)ccn1 [Compound C, reference compound]
p-ACC levels, serum-treated HEK cells ([1]; 10% serum): modest decreases | p-ACC levels, serum-starved HEK cells ([1]; serum-starved, 1 hour treatment): best inhibition

pIC50 ([2]; 1 mM DTT, read-out: extrapolated IC50 in the presence of DTT): ~3.60 | Hill slope ([2]; full-length AMPK, inhibition of MANT-ADP fluorescence): 1.3 | pIC50 ([2]; full-length AMPK, inhibition of MANT-ADP fluorescence, read-out: IC50): 5.57 | Hill slope (data in parentheses) [3]: 1.4 | pIC50 ([3]; read-out: IC50 (data in parentheses)): 5.82
SMILES: O=C1Nc2ccc(Br)cc2/C1=C1/SC(=S)N(C(Cc2ccccc2)C(=O)O)C1=O (stereo not shown) [STL035166]
thiol-reactivity: binding curves in the presence and absence of DTT ([2]; 0-1 mM DTT): dramatically different dose response curve | AMPK modulatory activity ([4]; HEK cells): inhibitory activity | phospho-AMPKα (Western blot, FIG. 7) ([4]; HEK cells, standardized to tubulin): decreased | phospho-AMPK (FIG. 8) ([4]; human Hek293 cells): increase

inhibition of the protein-bound signal of MANT-ADP in the triplicate similarity screen [2]: reproducibly inhibited | pIC50 ([2]; full-length AMPK, Example 4, read-out: binding IC50): > 5.30 | protection of p-AMPK from dephosphorylation [5]: failed to protect
SMILES: CCCOC(=O)c1cc(-c2ccc(/C=C3\SC(=S)NC3=O)o2)ccc1Cl [BAS 03338548, Propyl 2-chloro-5-(5-{[(5Z)-4-oxo-2-sulfanylidene-1,3-thiazolidin-5-ylidene]methyl}furan-2-yl)benzoate]

inhibition of the protein-bound signal of MANT-ADP in the triplicate similarity screen [2]: reproducibly inhibited
SMILES: COC(=O)CN1C(=O)/C(=C/c2ccc(OC)cc2)SC1=S [BAS 00502779]
